Measured values taken from patent publication US8883723B2, “Conjugate of insulin and vitamin B12 for oral delivery” (Syracuse University, priority 2007, dated 2014).
Like-named read-outs stand apart in the source and are kept apart here.

What was measured:
humans [1] = conditions: cited from earlier work
[2] = humans; cited from earlier work
[3] = native insulin, Tietze et al. 1953; cited from earlier work
[4] = oral-enteric route; cited from earlier work
[5] = in vivo; cited from earlier work
humans [6] = conditions: cited from earlier work; for decrease in caloric intake: total dose 2 nmol/m^2 body-surface area, 90-min infusion
[7] = Melting circular dichroism studies (222 nm); format: physicochemical; conditions: 50 mM HEPES
Protocol: Melting circular dichroism (CD) studies. Circular dichroism (CD) was performed on an Aviv model 202 spectrometer set at 222 nm with a 1 mL Quartz cuvette. All samples were prepared in 50 mM HEPES buffer (pH 9.7) with 25 mM carbonate and 10 mM EDTA and heated from 25 to 80° C. in 1° increments then cooled from 80 to 25° C. in the same increment. Sample concentrations ranged from 1.00 μM to 1.35 μM. […] All results were duplicated per batch and run for every batch prior to in vivo testing.

[8] = system: STZ-induced diabetic rat model; assay: Blood glucose response after oral gavage in the STZ-induced diabetic rat model; format: in vivo, Sprague Dawley rats; conditions: STZ-induced diabetic rats
Excerpt: To examine the in vivo efficacy of the B12-insulin conjugate, blood from the STZ-induced diabetic rat model was sampled by means of a jugular catheter prior to and subsequent to oral administration of the B12-insulin conjugate and compared to the blood glucose response following administration of an equimolar solution of free insulin (FIG. 8A and B).
Animals. Male Sprague Dawley rats (323±36; ±SD; n=12) were purchased pre-catheterised (Jugular vein) from Charles River Laboratories (Wilmington, Mass.), acclimatised for three days and then rendered insulin-deficient via infusion of streptozotocin (STZ; 60 mg/kg body weight) dissolved in citrate buffer and used within 15 min of preparation. Blood glucose concentration was assessed over four days to ensure fasting levels of greater than 14 mmol/L (>250 mg/dl) were reached. Animals were housed individually and maintained on a 12-hr light-dark (0600-1800 h) cycle with free access to food (standard laboratory chow; Scotts' Distributing, Inc) and water. Maintenance of animals and experimental protocols were conducted in accordance with federal regulations and approved by the Syracuse University Institutional Animal Care and Use Committee (Protocol Number SU 09-102)
Animal experimental design. On the day of experimentation, animals were fasted for 4 hours prior to the sampling of blood (50 μl) and the B12-insulin compound (100 nm/ml) was subsequently administered via oral gavage (1 ml). Blood was then sampled at 30-, 60-, 90-, 120-, 150-, 180-, 210-, 240-, 270- and 300-min after the administration of the conjugate for the calculation of area under the blood glucose curve (YSI 2300 STAT PLUS, YSI Incorporated, Yellow Springs, Ohio). Two control groups were used in this set of experiments; the first received a molar-equivalent concentration (100 nm) of free insulin (1 ml) while the second control group received the same quantity of the B12-insulin conjugate as the experimental group, however the conjugate was dissolved in 10^5-fold excess B12.

Intrinsic Factor = assay: Spectrophotometric Intrinsic Factor in vitro binding studies; conditions: 50 mM HEPES
Protocol: Intrinsic Factor binding studies. Intrinsic Factor (10 mg, […]) was dissolved in 1 mL dH2O. A 50 μL aliquot of B12-insulin was added to 950 μL of 50 mM HEPES buffer. Baseline was run against HEPES buffer and the first scan of B12-insulin was taken without Intrinsic Factor. A 5 μL aliquot of Intrinsic Factor was added to the B12-insulin, mixed and a second scan was taken. This procedure was repeated for five additions of Intrinsic Factor.

obese subjects = conditions: cited from earlier work

Compound: GLP-1(7-36)amide: Glucagon-like peptide-1 (7-36) amide, endogenous incretin peptide
- average acute reduction of food intake (humans [1]; infusion, meta-analysis): 11.7%
- weight loss (humans [1]; prandial subcutaneous injections for 5 days, obese but otherwise healthy subjects): 0.55 kg

Compound: Cyanocobalamin [B12]
- uptake capacity [2]: 1-2 μg per dosage

Compound: insulin
- half-life [3]: 10 min
- bioavailability [4]: about 5%

Compound: PYY3-36: truncated form of Peptide YY, endogenous appetite suppressing peptide
- time for plasma level to return to baseline after end of infusion [5]: ≤ 30 min
- reduction in calorie intake (humans [6]; lean humans, i.v. infusion 0.8 pmol/kg/min, free-choice buffet meal 2 hours after end of infusion): approximately 36%
- decrease in caloric intake (humans [6]; lean subjects): 31%
- decrease in caloric intake (humans [6]; obese subjects): 30%

Compound: B12-insulin conjugate: Bovine insulin conjugated using CDI at B strand lysine29 to the 5′-hydroxyl group of B12; carbamate linked conjugate
- melting temperature (circular dichroism) [7]: ~65 °C
- melting temperature (circular dichroism) ([7]; listed as B12-insulin): 55 °C
- reduction of blood glucose levels compared with free insulin ([8]; oral administration): more effective than free insulin
- time of nadir in the blood glucose response ([8]; oral administration): 4 h
- greater decrease in the area under the blood glucose curve compared to free insulin ([8]; oral gavage 1 ml of 100 nm/ml, 300 min, vs equimolar free insulin, p=0.056): 4.7 fold
- binding to Intrinsic Factor (Intrinsic Factor): recognizing the B12-insulin conjugate
- binding to Intrinsic Factor (Intrinsic Factor; listed as insulin-B12 conjugate): successful binding

Compound: CC(C)CC(N(C)C)C1(c2ccc(Cl)cc2)CCC1 (stereo not drawn) [sibutramine]
- mean weight loss (obese subjects): 10%
- reduction of acute caloric intake (obese subjects): 16%
